Literature values, collected in patent publication US20080004440A1, “SCAR TREATMENT USING PROTEIN PHOSPHATASE INHIBITORS” (priority 2006, published 2008).
Where a name gives a salt, the structure may show the parent alone. Read-outs that look alike come from different tables or passages of the source. *1 amine or outer side, *2 acyl side, *3 side chain or, on linkers, in order; H or OH if unused. Where a SMILES comes first, the peptide text is derived from it. Bridges are numbered along the chain shown (N, C = ends). [ ]: non-standard residue; d: D form. Adda = CO[C@@H](Cc1ccccc1)[C@@H](C)/C=C(C)/C=C/[C@H](N[*:1])[C@H](C)C(=O)[*:2]; dAsp(3S-Me) = C[C@H](C(=O)[*:3])[C@@H](N[*:1])C(=O)[*:2]; d(γGlu) = O=C(O)[C@@H](CCC(=O)[*:2])N[*:1]; NMeDha = C=C(NC)C(=O)O

How the values were obtained:
[1] = cited from earlier work
PP2A = settings: cited from earlier work
PP2A, PP1, PP2B = settings: cited from earlier work
PP1 = settings: cited from earlier work
PP2B = settings: cited from earlier work

Compound | IC50 (PP2A) | Order of inhibition / selectivity among protein phosphatases (PP2A, PP1, PP2B) | IC50 (PP1) | other results
COC[C@@H]([C@H](O)[C@H](O)C(=O)NCC[C@H](C)c1nc(/C=C/C[C@@H]2O[C@]3(C[C@@H](O)[C@@H]2C)O[C@H]([C@H](C[C@H](O)[C@H](C)[C@H](O)[C@H](C)/C=C(C)/C(C)=C/C=C/C(C)=C\C#N)OC)[C@H](OP(=O)(O)O)C3(C)C)co1)N(C)C [Calyculin A] | 0.5 to 1 nM | Cell-permeable. Phosphorylated polyketide. PP2A ˜ PP1 >> PP2B | 2 nM | Cell permeability ([1]; in words): Cell-permeable. Phosphorylated polyketide. PP2A ˜ PP1 >> PP2B
O=C(O)[C@@H]1[C@H](C(=O)O)[C@H]2CC[C@@H]1O2 [Endothall] | 90 nM |  |  | Order of inhibition / selectivity among protein phosphatases (PP2A, PP1, PP2B; in words): specific inhibitor of PP2A
C[C@@](O)(/C=C/[C@H]1CC=CC(=O)O1)[C@@H](C[C@@H](O)\C=C/C=C\C=C\CO)OP(=O)(O)O [Fostriecin] | 3.2 nM |  |  | IC50 (PP1; inhibits PP1 only at higher concentrations): 131000 nM
C=C1C(=O)N[C@H](C)C(=O)N[C@@H](CC(C)C)C(=O)N[C@@H](C(=O)O)[C@H](C)C(=O)N[C@@H](CCCNC(=N)N)C(=O)N[C@@H](/C=C/C(C)=C/[C@H](C)[C@H](Cc2ccccc2)OC)[C@H](C)C(=O)N[C@@H](C(=O)O)CCC(=O)N1C [Microcystin-LR] (R[Adda][d(γGlu)][NMeDha][dA]L[dAsp(3S-Me)]-OH; lactam N-7) | 0.04 nM | Cyclic peptide. PP2A ˜ PP1 >> PP2B (IC50 for PP2A = 40 pM | 1.7 nM | 
C=C1[C@@H](O)[C@@H]2O[C@]3(CC[C@H](/C=C/[C@@H](C)[C@@H]4CC(C)=C[C@@]5(O[C@H](C[C@@](C)(O)C(=O)O)CC[C@H]5O)O4)O3)CC[C@H]2O[C@@H]1[C@@H](O)C[C@H](C)[C@H]1O[C@@]2(CCCCO2)CC[C@H]1C [Okadaic acid, ammonium salt] | 0.1 nM |  | 10 to 15 nM | IC50 (PP2B): 5 µM
O=P(O)(O)Oc1cccc2ccccc12 [α-Naphthyl acid Phosphate] |  |  |  | Order of inhibition / selectivity among protein phosphatases (PP2A, PP1, PP2B; in words): Broad-spectrum protein phosphatase inhibitor.
Microcystin-LW |  |  |  | Cell permeability [1]: A more cell-permeable analog of Microcystin-LR
Microcystin-RR | 1.4 nM | Cyclic peptide. PP2A ˜ PP1 >> PP2B (IC50 = 1.4 nM |  | 
Protein phosphatase 2A inhibitor I1^PP2A: Protein phosphatase 2A inhibitor; potently inhibits all forms of PP2A |  |  |  | Ki (PP2A; all forms of PP2A): ~0.1 nM
